Source: patent US20200390729A1, “OPHTHALMIC TOPICAL COMPOSITION COMPRISING DOBESILIC ACID FOR TREATING DISEASES OF THE POSTERIOR SEGMENT OF THE EYE” (LABORATORIOS SALVAT, S.A., priority 2017, published 2020)
Like-named read-outs stand apart in the source and are kept apart here.

Legend:
[1] = Ocular distribution of etamsylate following topical ocular single dose in rats; format: in vivo, Sprague Dawley (SD) rat; settings: Sprague-Dawley, rat
Method: Bioanalysis of CDO was performed depending on the type of matrix. In the case of plasma, proteins were precipitated using methanol. In the case of tissues, samples were grinded in a Mini Bead Beater using zirconium beads and methanol/water (1:1) (v/v) as solvent. After centrifugation, samples were analyzed by UPLC-MS/MS.
Chromatographic separation was carried out using an Acquity CSH Fluoro Phenyl column (1.7 μm, 50×2.1 mm). Mobile phase consisted of a gradient using 0.1% formic acid in water and acetonitrile from 5% to 45% in 4.5 min at a flow rate of 0.6 ml/min.
With regard to the mass spectrometric detection, the electrospray ionization source worked to record negative ions. Multiple Reaction Monitoring (MRM) acquisition mode of the deprotonated molecular ions was performed. The transition monitored for CDO was m/z 189.0→80.1 with a cone voltage of 45 V and collision energy of 25 eV.
At 15, 60 and 180 minutes post-administration, animals were euthanized and ocular tissues including retina, and optic nerve were collected.
As described in Example 2.

TNF-α mRNA = assay: Anti-inflammatory activity: relative TNF-α mRNA in retinas, streptozotocin diabetic retinopathy model; format: in vivo, SD male rats; settings: diabetic rats, CDO 10 mg/ml topical 10 μl/eye TID 28 days
Method: Diabetes was induced in SD male rats by single intraperitoneal injection of streptozotocin (STZ) at 60 mg/kg body weight in citrate buffer (pH 4.5). Seven days after STZ administration, blood glucose was measured and the level of 250 mg/dl was considered the threshold value to consider diabetes induction. Ophthalmic treatment with CDO at 10 mg/ml (topical instillation of 10 μl/eye) was initiated once hyperglycemia was confirmed and continued for 28 days three times a day (TID). Rats were randomly divided in 3 groups: I. Control (non-diabetic), II. Diabetic rats with no treatment and III. Diabetic rats with CDO at 10 mg/ml. […]
RNA was isolated from each retina by using the commercial kit SV Total RNA Isolation System (Promega) and stored at −80° C. until use. Relative mRNA levels were quantified using a MX3000 (Stratagene) quantitative PCR system. […]
The qPCR system detects the fluorescence emitted by SYBR, its increase corresponds to exponential increase of the PCR product. The software calculates the threshold cycle (Ct), in which the fluorescence exceeds the background signal. Relative changes in gene expression were calculated using the ΔCt method. […] Relative expression of mRNA in the test samples were determined as fold increase compared with the control sample (non-diabetic).

[2] = system: oxidized glutathione (GSSG); assay: Antioxidant capacity: GSSG in homogenized retinas, streptozotocin diabetic retinopathy model; format: in vivo, SD male rats; settings: diabetic rats, CDO 10 mg/ml topical 10 μl/eye TID 28 days; P<0.01 group II vs. group III
Method: Diabetes was induced in SD male rats by single intraperitoneal injection of streptozotocin (STZ) at 60 mg/kg body weight in citrate buffer (pH 4.5). Seven days after STZ administration, blood glucose was measured and the level of 250 mg/dl was considered the threshold value to consider diabetes induction. Ophthalmic treatment with CDO at 10 mg/ml (topical instillation of 10 μl/eye) was initiated once hyperglycemia was confirmed and continued for 28 days three times a day (TID). Rats were randomly divided in 3 groups: I. Control (non-diabetic), II. Diabetic rats with no treatment and III. Diabetic rats with CDO at 10 mg/ml.
At day 29 CDO was instilled a single time at 10 mg/ml in the group III, rats were euthanized and retinas were collected 15 minutes post-administration.
The antioxidant capacity was evaluated by determining the concentrations of Glutathione disulfide (GSSG) or oxidized glutathione in the homogenized retinas. Tissues were collected at day 29 and homogenized in PBS pH 6-7 containing 1 mM EDTA. After centrifugation at 10000 rpm, an aliquot of the supernatant was diluted in 0.1% formic acid and analyzed by UPLC-MS/MS. […]
With regard to the mass spectrometric detection, the electrospray ionization source worked to record negative ions. […] The transition monitored for GSSG was m/z 611.2→306.2 with a cone voltage of 45 V and collision energy of 25 eV.

[3] = optic nerve, 0.126 mg, read-out: CDO μg/g tissue Optic nerve
[4] = optic nerve, 1.26 mg, read-out: CDO μg/g tissue Optic nerve
[5] = retina, 0.126 mg, read-out: CDO μg/g tissue Retina
[6] = retina, 1.26 mg, read-out: CDO μg/g tissue Retina

## O=S(=O)(O)c1cc(O)ccc1O [CDO, Calcium dobesilate monohydrate]
[1]; [3]
  concentration at 0.25 h: 36.5 µg/g
  concentration at 1 h: 8.13 µg/g
  concentration at 3 h: 2.32 µg/g
[1]; [4]
  concentration at 0.25 h: 25.2 µg/g
  concentration at 1 h: 15.8 µg/g
  concentration at 3 h: 2.67 µg/g
[1]; [5]
  concentration at 0.25 h: 4.39 µg/g
  concentration at 1 h: 3.48 µg/g
  concentration at 3 h: 0.27 µg/g
[1]; [6]
  concentration at 0.25 h: 4.05 µg/g
  concentration at 1 h: 2.42 µg/g
  concentration at 3 h: 1.56 µg/g
TNF-α mRNA
  TNF-α mRNA expression of treated group vs control group (non-diabetic): slightly lower than the control group
[2]
  retinal concentrations of GSSG: return concentrations of GSSG at the same level as the control group
